In US20090226455A1, “COMBINATION THERAPY WITH C-MET AND HER ANTAGONISTS” (Genentech, Inc., priority 2008, published 2009):

How the values were obtained:
EBC-1 shMet-4.5 tumors = assay: EBC-1 shMet-4.5 NSCLC xenograft model, tumor growth inhibition; assay type: in vivo, nude mice (nu/nu); settings: compared to sucrose control at day 29; pertuzumab 5 mg/kg IP once a week; Dox 1 mg/mL in 5% sucrose drinking water (induces c-met shRNA knockdown)
Protocol: Control antibodies mouse IgG2a isotype 10D9-1E11-1F12 (anti-Ragweed) antibody and the human IgG1 isotype hu5B6 (anti-gD) antibody were obtained from the Antibody Engineering Department at Genentech, Inc., in a clear liquid form and were diluted in 1×PBS. Doxycycline (Dox) was prepared fresh at 0.5 or 1 mg/mL in 5% sucrose water and was regularly exchanged every 3 days. In Dox studies, control animals were given 5% sucrose water that was exchanged every 3 days. Materials were stored in a refrigerator set to maintain a temperature range of 4° C. to 8° C. […]
To prepare cells for inoculation into mice, cells were trypsinized, washed with ten milliliters of sterile 1× phosphate buffered saline (PBS). A subset of cells was counted by trypan blue exclusion and the remainder of cells was resuspended in 100 μl of sterile 1× PBS to a concentration of 5×10^7 cells per milliliter. […] Tumors were monitored until they reached a mean volume of 200 mm^3.
Mice in Group 1 were treated with anti-Ragweed control antibody (5 mg/kg, IP, once a week for 5 weeks) and given 5% sucrose drinking water. […] Tumor volumes were monitored through day 29. […]
Tumor inhibition was plotted using KaleidaGraph 3.6 (Synergy Software; Reading, Pa.). Percent growth inhibition (% Inh) was calculated as follows: […]
Tumor incidence was determined by the number of measurable tumors in each group at the end of study. […]

advanced ovarian cancer = settings: 3 subjects with advanced ovarian cancer treated; one subject; cited from earlier work

Row | Compound | tumor inhibition (reduction in tumor growth) (EBC-1 shMet-4.5 tumors) | clinical response (advanced ovarian cancer)
1 | C[C@H]1c2cccc(O)c2C(=O)C2=C(O)[C@]3(O)C(=O)C(C(N)=O)=C(O)[C@@H](N(C)C)[C@@H]3[C@@H](O)[C@@H]21 [Dox, Doxycycline, reference compound] | 54% | –
2 | pertuzumab: humanized antibody that inhibits the dimerization of HER2 with other HER receptors; light and heavy chain SEQ ID NOs 15 and 16 | 43.6% | durable partial response
